The text below walks through data of patent publication US8586568B2, “Methods and products for treatment of diseases” (Ampio Pharmaceuticals, Inc., priority 2005, dated 2013).

Where two headings read alike, the source gives them in different places.

Data set [1] deals with Human umbilical vein endothelial cells 7016 (HUVEC). Description: Invasion chamber: fetal calf serum induced endothelial cell invasion through matrigel treated inserts (trilostane III). Conditions: for Mean FU: 5% FCS in bottom chamber, 24 hours, background subtracted, n=3; for effect on endothelial cell invasion: high dose (50 μM), 5% FCS induced invasion. Here is the method:
1. Trypsinized HUVEC cells from flasks grown in Cambrex EGM-2 media to 70-80% confluence were washed two times with 37° C. EGM-2 with 0.1% FCS.
2. Cell suspensions containing 30,000 cells and compounds in EGM-2 0.1% FCS were added to the upper chamber of inserts.
3. EGM-2 containing 5% FCS was added to the bottom chamber and then incubated for 24 hours at 37° C. and 5% CO2.
4. Non-invading cells were removed from the upper chamber with cotton swab and the inserts were washed two times with 37° C. HBSS.
5. Inserts were then placed in wells containing 10 μM Calcein AM in HBSS.
6. Following four hours at 37° C. and 5% CO2, fluorescence was measured at 485 nm excitation and 595 nm emission.
Results are presented as mean fluorescent units (FU) in triplicate (n=3) with background fluorescence subtracted. […] To determine background invasion, nil inserts were included in triplicate that had EGM-2 with 0.1% FCS added to the bottom chamber.

Data set [2] relates to HUVEC cells. The data set can be described thus: Danazol BioCoat Matrigel Invasion Chamber. In kind it is cell-based, Human. The note with it: 5% FCS in bottom chamber; 24 hours; concentration not stated with the value. Here is the method: BioCoat Matrigel Invasion Chambers were purchased from BD Biosciences (San Jose, Calif.). Inserts were rehydrated at 37° C. with 500 μl HBSS for 2 hours prior to use in humidified incubator. Trypsinized HUVEC cells were washed twice with warm EGM-2 containing 0.1% FCS and added to the upper chamber of the invasion insert at 100,000 cells in a total volume of 250 μl. Danazol and control compounds were added to the upper reservoir at final concentrations of 10 μM and 100 μM. 750 μl EGM-2 supplemented with 5% FCS was added to the bottom chamber to initiate invasion and the plates were incubated for 24 hours. Non-invasive cells were removed from the upper chamber with moistened cotton swabs and then the inserts were washed twice with HBSS. The inserts were then submerged in 10 μM calcein AM prepared in HBSS and incubated for 4 hours. Fluorescence was determined in a microplate reader at 485 nm excitation and 595 nm emission.
All data is presented as representative experiment done in triplicate. Differences between subsets were analyzed using student t-test in Microsoft Excel. P<0.05 was considered statistically significant.

Data set [3] deals with HUVEC cells. The data set can be described thus: Trilostane III tube formation assay in extracellular matrix gel. The note with it: 50 μM, 18 hours. Type of data set: cell-based, Human. As for the experimental part: 1. […] EGM-2 with 0.1% FCS.
2. Cell suspensions containing 10,000 cells and compounds in both EGM-2 0.1% and 5% FCS were added per well then incubated for 18 hours at 37° C. and 5% CO2.
3. Following incubation, tube formations were photographed under microscope.
Passage 3 HUVEC 8750 cells were used for this experiment at 98% viability by trypan blue exclusion at time of seeding.

The test system of data set [4] is HUVEC cells. The data set can be described thus: Trilostane III effect on HUVEC cell proliferation (Celltiter 96 Aqueous One). Type of data set: cell-based, Human. The note with it: for mean OD: 5% FCS, blank subtracted; for OD 1: replicate 1; for OD 2: replicate 2; for OD 3: replicate 3; for inhibition at 100 µM: Homo sapiens, HUVEC, read-out: inhibition of cultures (cell proliferation). As for the experimental part:
2. Medium was aspirated and the cells were then washed two times with 37° C. HBSS.
4. Cells were again washed to times with warm HBSS and then Celltiter reagent in EGM-2 with 0.1% FCS was added.
5. After 4 hours in culture the OD of each well was determine at 470 nm.
6. Repeat steps 4 and 5 for each time point.
Results are presented as mean OD of samples performed in triplicate (n=3) with mean blank OD subtracted. HUVEC 8750 cells were used for this experiment with 98% viability by trypan blue exclusion at time of seeding. […] The raw data are shown in Table 2 below and depicted graphically in FIG. 2.

The mark [5] stands for this setting: without added 5% FCS (nil wells, 0.1% FCS).

In the case of “2α-cyano-4α,5α-epoxyandrostan-17β-ol-3-one [trilostane]”, the results for the “Mean FU” value in data set [1] (25 μM) and in data set [1] (50 μM) were 11212.3 FU and 9101.33 FU, respectively.
`O=c1cc(N2CCOCC2)oc2c(-c3ccccc3)cccc12` [LY294002]: the “fluorescence of invaded cells” value in data set [2] is recorded as 5814±153 FU. For the same compound, the “Mean FU” value in data set [1] (50 μM) stood at 9454.33 FU.
In the case of `O=c1cc(N2CCNCC2)oc2c(-c3ccccc3)cccc12` [LY303511], the “tube formation” value in data set [3] (setting [5]) is “comparable tube formations to untreated cells”. The “Mean FU” value in data set [1] (50 μM) is listed as 12795.3 FU. Moreover, in data set [1], the “effect on endothelial cell invasion” value is reported as “had no effect on invasion”.
For `C[C@]12CCC3C(CC[C@@]45O[C@@H]4C4ON=CC4C[C@]35C)C1CC[C@@H]2O` (stereo partly drawn) [trilostane III], the “mean OD” value was determined as 0.3873 in data set [4] (0.1 uM, 24 hour); 0.656 in data set [4] (0.1 uM, 48 hour); 0.9187 in data set [4] (0.1 uM, 72 hour); 0.311 in data set [4] (1 uM, 24 hour); 0.4347 in data set [4] (1 uM, 48 hour); 0.3877 in data set [4] (1 uM, 72 hour). For the same compound, the “mean OD” value came out at 0.2467 in data set [4] (10 uM, 24 hour); 0.203 in data set [4] (10 uM, 48 hour); 0.072 in data set [4] (10 uM, 72 hour); 0.2787 in data set [4] (100 uM, 24 hour); 0.2147 in data set [4] (100 uM, 48 hour); 0.108 in data set [4] (100 uM, 72 hour). Moreover, the “OD 1” value in data set [4] (0.1 uM, 24 hour) came out at 0.362; in data set [4] (0.1 uM, 48 hour) it was 0.575; in data set [4] (0.1 uM, 72 hour) it was 0.733; in data set [4] (1 uM, 24 hour) it was 0.284; in data set [4] (1 uM, 48 hour), 0.358; in data set [4] (1 uM, 72 hour) it was 0.387. For the same compound, the “OD 1” value in data set [4] (10 uM, 24 hour) stood at 0.18; in data set [4] (10 uM, 48 hour), 0.159; in data set [4] (10 uM, 72 hour) it was 0.031; in data set [4] (100 uM, 24 hour), 0.235; in data set [4] (100 uM, 48 hour) it was 0.17; in data set [4] (100 uM, 72 hour), 0.092. In addition, the “OD 2” value in data set [4] (0.1 uM, 24 hour) was 0.368; in data set [4] (0.1 uM, 48 hour) it was 0.698; in data set [4] (0.1 uM, 72 hour), 0.962; in data set [4] (1 uM, 24 hour), 0.328; in data set [4] (1 uM, 48 hour) it was 0.489; in data set [4] (1 uM, 72 hour), 0.437. Further, the “OD 2” value in data set [4] (10 uM, 24 hour) turned out to be 0.267; in data set [4] (10 uM, 48 hour), 0.208; in data set [4] (10 uM, 72 hour), 0.095; in data set [4] (100 uM, 24 hour), 0.334; in data set [4] (100 uM, 48 hour), 0.23; in data set [4] (100 uM, 72 hour) it was 0.119. The “OD 3” value in data set [4] (0.1 uM, 24 hour) amounted to 0.432; in data set [4] (0.1 uM, 48 hour), 0.695; in data set [4] (0.1 uM, 72 hour) it was 1.061; in data set [4] (1 uM, 24 hour), 0.321; in data set [4] (1 uM, 48 hour), 0.457; in data set [4] (1 uM, 72 hour) it was 0.339. Besides, the “OD 3” value is 0.293 in data set [4] (10 uM, 24 hour); 0.242 in data set [4] (10 uM, 48 hour); 0.09 in data set [4] (10 uM, 72 hour); 0.267 in data set [4] (100 uM, 24 hour); 0.244 in data set [4] (100 uM, 48 hour); 0.113 in data set [4] (100 uM, 72 hour). Also, in data set [4] (24 hours), the “lowest concentration with statistically relevant decrease in cell proliferation” value is 1 µM. Also, the inhibition at 100 µM in data set [4] (24 hours) is 33%; in data set [4] (48 hours), 67%; in data set [4] (72 hours), 90%. The “cell viability under inverted microscope” value in data set [4] (all wells, even highest doses after 72 hours in culture) is given as “Viable cells were visible in all wells”. For the same compound, the “tube formation” value was “greatly reduced tube formation” in data set [3] (in the presence of 5% fetal calf serum); “decrease in branching, vacuole formation, and increase in satellite cells” in data set [3] (setting [5]). Moreover, in data set [1], the “effect on endothelial cell invasion” value is reported as “dropped the levels back to background”.
